Experimental data from patent publication US10736864B2, “Immunotherapeutic agent” (Immodulon Therapeutics Limited, priority 2016, dated 2020).

Columns and labels:
[1] = system: splenocytes stimulated in vitro with ovalbumin; test: In vitro splenocyte culture from treated mice, ovalbumin stimulation (cytokine ELISA); assay type: in vivo, BALB/c mice; conditions: FIG. 3B; mice treated 5 μg s.c.; allergen (ovalbumin) stimulation; vs buffer
[2] = system: allergic mice challenged with ovalbumin; test: Murine model of allergic pulmonary inflammation: treatment studies (BAL cells and cytokines); assay type: in vivo, BALB/c mice; conditions: vs vehicle; for number of eosinophils recovered in the BAL fluid / numbers of macrophages in BAL fluid / total cellular infiltrate in BAL fluid / IL-5 concentrations in the BAL fluid / IL-10 concentrations in the BAL fluid: Experiments 5 and 6, lipid 5 μg s.c.; for number of eosinophils recovered in the BAL fluid / numbers of macrophages in BAL fluid / total cellular infiltrate in BAL fluid: M. vaccae 0.1 mg s.c.
[3] = system: freshly isolated murine peritoneal macrophages; test: LPS-induced IL-6 secretion in freshly isolated peritoneal macrophages (ELISA); assay type: cell-based, BALB/c mice
Protocol: Experiment 7 was carried out to resolve if 10(Z)-hexadecenoic acid has a direct effect on immune cells. Macrophages were selected for this study on account of their ubiquity and diverse role in immune processes. To simulate inflammation, freshly isolated mouse peritoneal macrophages were challenged with lipopolysaccharide (LPS; 1 μg/mL) ex vivo.
Murine peritoneal macrophages were isolated as previously described (Zhang, X. et al. (2008)). Briefly, mice received one 1 ml i.p. injection of 3% thioglycollate medium (Cat. No. 9000-294, VWR, Radnor, Pa., USA). Ninety-six hours later, macrophages were collected in DPBS (Cat. No. 14190136, Invitrogen, Carlsbad, Calif., USA). Cells were centrifuged and resuspended in DMEM/F-12 (Cat. No. 10565018, Invitrogen) supplemented to be 10% (v/v) fetal bovine serum (Cat. No. 16000036, Invitrogen) and 1% penicillin/streptomycin (Cat. No. 15140148, Invitrogen). One mouse yielded enough cells for one experimental replicate. 1×10^5 cells/well were allowed to adhere for 1.5 h before being washed with DPBS. 10(Z)-hexadecenoic acid was dissolved in DMEM/F-12 with 0.5% (v/v) dimethyl sulfoxide (Cat. No. D8418, Sigma-Aldrich). The macrophages were incubated with either 10(Z)-hexadecenoic acid (0.4 μM, 4 μM, 20 μM, 100 μM, 500 μM, 1000 μM) or DMEM/F-12 for 1 h before being stimulated with 1 μg/ml lipopolysaccharide (serotype 0127:B8, Sigma-Aldrich, St. Louis, Mo., USA). Culture supernatants were collected at 6, 12, and 24 h post-stimulation.
Cell culture supernatants from freshly isolated peritoneal macrophages were diluted 1:200, and IL-6 was measured using sandwiched ELISA (Cat. No. 431304, Biolegend, San Diego, Calif., USA). All samples were measured in duplicate.

[4] = system: freshly isolated murine peritoneal macrophages; test: Proinflammatory cytokine and chemokine ligand mRNA levels (RNAseq) in LPS-stimulated peritoneal macrophages; assay type: cell-based
Protocol: This can be measured using RNAseq analysis of freshly isolated murine peritoneal macrophages stimulated with LPS, in the presence or absence of 10(Z)-hexadecenoic acid. […] Compounds of the invention are therefore useful in inhibiting the proinflammatory cascade that contributes to the pathology of sepsis.
This difference was observable as early as 6 h after LPS challenge, and was sustained for at least 24 h. The effect also appeared to be concentration and time dependent. The lowest concentration of 0.4 μM was ineffective at 6 h, but reduced IL-6 secretion to 40% of control levels at 24 h. This time and concentration dependence may indicate that a receptor-mediated transcriptional change is occurring. In contrast to the effects of 10(Z)-hexadecenoic acid on LPS-induced IL-6 secretion, it had no effect of IL-6 secretion by itself (FIG. 4D). A transcriptional change was confirmed by measurement of pro-inflammatory cytokine and chemokine ligand mRNA levels in macrophages pre-treated with 10(Z)-hexadecenoic acid for 1 h prior to LPS treatment (Table 2).

[5] = system: freshly isolated murine peritoneal macrophages; test: Sulforhodamine B (SRB) macrophage cell viability / cytotoxicity assay
Protocol: Sulforhodamine B (SRB) was used to assess cytotoxic effects of various concentrations of 10(Z)-hexadecenoic acid (10 μM, 50 μM, 100 μM, 250 μM, 500 μM, 1000 μM) after 0, 6, 12, 24, 48, and 72 h of incubation with freshly isolated murine peritoneal macrophages. Percent control growth is expressed as % viability and is a ratio of the amount of growth that occurred with treatment over the amount of growth that occurred in media. […] Data are expressed as mean±SEM of 3-7 mice per condition.
Cytotoxicity was determined using the sulforhodamine B (SRB) colorimetric assay, as previously described (Vichai and Kirtikara, 2006). Briefly, without removing the culture media, cells were fixed by adding cold trichloroacetic acid and incubated at 4° C. for 1 h. The plates were washed with slow-running tap water and set out to dry overnight. Then, 0.057% SRB (Cat. No. AC333130050, Fisher, Pittsburgh, Pa., USA), solubilized in 10 mMTris (Cat. No. BP153, Fisher), was added to each well. After 30 min, plates were washed with 1% acetic acid and set out to dry overnight. SRB was measured at 490 nm on a Synergy HT microplate reader (Part Number 7091000, Biotek, Winooski, Vt., USA). Cell viability was expressed as the ratio of experimental and control growth.

## CCCCC/C=C\CCCCCCCCC(=O)OCC(COC(=O)CCCCCCCC/C=C\CCCCC)OC(=O)CCCCCCCC/C=C\CCCCC [1,2,3-tri[Z-10-hexadecenoyl]glycerol]
[1]
  IL-5 levels in the supernatant of splenocytes: decrease
  IL-10 levels in the supernatant of splenocytes: increase
[2]
  number of eosinophils recovered in the BAL fluid: reduction
  numbers of macrophages in BAL fluid: not increased
  total cellular infiltrate in BAL fluid: reduction
  IL-5 concentrations in the BAL fluid: decrease
  IL-10 concentrations in the BAL fluid: increase

## CCCCC/C=C\CCCCCCCCC(=O)O [10(Z)-hexadecenoic acid]
[2]; Experiment 6
  numbers of neutrophils in BAL fluid: did not induce increases
[2]
  number of eosinophils recovered in the BAL fluid: significant reduction
  numbers of macrophages in BAL fluid: did not induce increases
  total cellular infiltrate in BAL fluid: significant reduction
  IL-5 concentrations in the BAL fluid: decrease
  IL-10 concentrations in the BAL fluid: increase
[3]; 0.4 μM, 6 h after LPS
  LPS-induced IL-6 secretion: ineffective
[3]; 0.4 μM, 24 h after LPS
  LPS-induced IL-6 secretion: 40 % of control levels
[3]; 1 h preincubation (0.4-1000 μM), LPS 1 μg/mL, 6, 12, 24 h, vs media alone
  LPS-induced IL-6 secretion: secreted less IL-6
[3]; absence of LPS, FIG. 4D
  IL-6 secretion by itself: no effect
[4]; preincubation then LPS, n = 3, LPS alone 24
  Ccl17 mRNA Mean #Reads s148.2 + LPS: 3
[4]; preincubation then LPS, n = 3, LPS alone 26
  II11 mRNA Mean #Reads s148.2 + LPS: 5
[4]; preincubation then LPS, n = 3, LPS alone 327
  Ccl22 mRNA Mean #Reads s148.2 + LPS: 117
[4]; preincubation then LPS, n = 3, LPS alone 603
  Ccl4 mRNA Mean #Reads s148.2 + LPS: 305
[4]; preincubation then LPS, n = 3, LPS alone 714
  II12a mRNA Mean #Reads s148.2 + LPS: 268
[4]; preincubation then LPS, n = 3, LPS alone 810
  Ccl6 mRNA Mean #Reads s148.2 + LPS: 368
[4]; preincubation then LPS, n = 3, LPS alone 1182
  Ccl7 mRNA Mean #Reads s148.2 + LPS: 441
[4]; preincubation then LPS, n = 3, LPS alone 1302
  II6 mRNA Mean #Reads s148.2 + LPS: 305
[4]; preincubation then LPS, n = 3, LPS alone 2098
  Tnf mRNA Mean #Reads s148.2 + LPS: 1023
[4]; preincubation then LPS, n = 3, LPS alone 4726, functional homologue of human IL-8
  Cxcl2 mRNA Mean #Reads s148.2 + LPS: 2680
[4]; preincubation then LPS, n = 3, LPS alone 5656
  Ccl2 mRNA Mean #Reads s148.2 + LPS: 2234
[4]; preincubation then LPS, n = 3, LPS alone 6693
  Ccl3 mRNA Mean #Reads s148.2 + LPS: 4067
[4]; preincubation then LPS, n = 3, LPS alone 15,957
  II1b mRNA Mean #Reads s148.2 + LPS: 5349
[4]; preincubation then LPS, n = 3, LPS alone 16533
  II1a mRNA Mean #Reads s148.2 + LPS: 8500
[4]; vs LPS alone
  Ccl2 mRNA Effect: ↓
  Ccl2 mRNA Fold-change: 0.39
  Ccl2 mRNA Log2 Fold-change: −1.34
  Ccl3 mRNA Effect: ↓
  Ccl3 mRNA Fold-change: 0.61
  Ccl3 mRNA Log2 Fold-change: −0.72
  Ccl4 mRNA Effect: ↓
  Ccl4 mRNA Fold-change: 0.51
  Ccl4 mRNA Log2 Fold-change: −0.98
  Ccl6 mRNA Effect: ↓
  Ccl6 mRNA Fold-change: 0.45
  Ccl6 mRNA Log2 Fold-change: −1.14
  Ccl7 mRNA Effect: ↓
  Ccl7 mRNA Fold-change: 0.37
  Ccl7 mRNA Log2 Fold-change: −1.42
  Ccl17 mRNA Effect: ↓
  Ccl17 mRNA Fold-change: 0.12
  Ccl17 mRNA Log2 Fold-change: −3.08
  Ccl22 mRNA Effect: ↓
  Ccl22 mRNA Fold-change: 0.36
  Ccl22 mRNA Log2 Fold-change: −1.48
  Cxcl2 mRNA Effect: ↓
  Cxcl2 mRNA Fold-change: 0.57
  Cxcl2 mRNA Log2 Fold-change: −0.82
  II1a mRNA Effect: ↓
  II1a mRNA Fold-change: 0.51
  II1a mRNA Log2 Fold-change: −0.96
  II1b mRNA Effect: ↓
  II1b mRNA Fold-change: 0.34
  II1b mRNA Log2 Fold-change: −2.16
  II6 mRNA Effect: ↓
  II6 mRNA Fold-change: 0.23
  II6 mRNA Log2 Fold-change: −2.09
  II11 mRNA Effect: ↓
  II11 mRNA Fold-change: 0.20
  II11 mRNA Log2 Fold-change: −2.35
  II12a mRNA Effect: ↓
  II12a mRNA Fold-change: 0.37
  II12a mRNA Log2 Fold-change: −1.42
  Tnf mRNA Effect: ↓
  Tnf mRNA Fold-change: 0.49
  Tnf mRNA Log2 Fold-change: −1.04
[5]; 1 mM, at most time points (0-72 h)
  viable macrophages: less than 40%
[5]; all other concentrations (10-500 μM), vs media controls
  macrophage viability: as viable as or more viable than media controls
